Laboratory results as given in PubChem BioAssay AID1963835 (Molecular Pharmacology Branch, DTP, NCI, 2024).

Tested on: 699152-130-R-J1-PDC complex spheroid viability
Assay: Anticancer human tumor 699152-130-R-J1-PDC patient-derived pancreatic carcinoma cell line growth inhibition [POLQ]
Settings: for IC50: curve of first compound; for viability, T/C: stronger effect = lower value
Method in brief: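 PDC + HUVEC + MSC complex spheroids; POLQ inhibitors ± partner drugs; top conc. at/near clinical Cmax, else 10 microM (SN-38 1 microM), half-log dilutions; 37 degrees C, 5% CO2.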

[1] = second compound 0.0316 µM, first compound 0.0316 µM
[2] = second compound 0.0316 µM, first compound 0.1 µM
[3] = second compound 0.0316 µM, first compound 0.316 µM
[4] = second compound 0.0316 µM, first compound 1 µM
[5] = second compound 0.0316 µM, first compound 3.16 µM
[6] = second compound 0.0316 µM, first compound 10 µM
[7] = second compound 0.1 µM, first compound 0.0316 µM
[8] = second compound 0.1 µM, first compound 0.1 µM
[9] = second compound 0.1 µM, first compound 0.316 µM
[10] = second compound 0.1 µM, first compound 1 µM
[11] = second compound 0.1 µM, first compound 3.16 µM
[12] = second compound 0.1 µM, first compound 10 µM
[13] = second compound 0.316 µM, first compound 0.0316 µM
[14] = second compound 0.316 µM, first compound 0.1 µM
[15] = second compound 0.316 µM, first compound 0.316 µM
[16] = second compound 0.316 µM, first compound 1 µM
[17] = second compound 0.316 µM, first compound 3.16 µM
[18] = second compound 0.316 µM, first compound 10 µM
[19] = second compound 1 µM, first compound 0.0316 µM
[20] = second compound 1 µM, first compound 0.1 µM
[21] = second compound 1 µM, first compound 0.316 µM
[22] = second compound 1 µM, first compound 1 µM
[23] = second compound 1 µM, first compound 3.16 µM
[24] = second compound 1 µM, first compound 10 µM
[25] = second compound 3.16 µM, first compound 0.0316 µM
[26] = second compound 3.16 µM, first compound 0.1 µM
[27] = second compound 3.16 µM, first compound 0.316 µM
[28] = second compound 3.16 µM, first compound 1 µM
[29] = second compound 3.16 µM, first compound 3.16 µM
[30] = second compound 3.16 µM, first compound 10 µM
[31] = second compound 10 µM, first compound 0.0316 µM
[32] = second compound 10 µM, first compound 0.1 µM
[33] = second compound 10 µM, first compound 0.316 µM
[34] = second compound 10 µM, first compound 1 µM
[35] = second compound 10 µM, first compound 3.16 µM
[36] = second compound 10 µM, first compound 10 µM
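Further: spheroids exposed to agents for 7 days before viability reading.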
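Wherever viability, T/C is given: percent of DMSO vehicle control viability so 100% = vehicle and 0% = no viable signal.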

In the case of `CC1COCCN1c1cc(C2(S(C)(=N)=O)CC2)nc(-c2ccnc3[nH]ccc23)n1` (stereo unspecified) + Nc1ccc(C#CCN(C(=O)Cc2ncc(C(F)(F)F)cc2C(F)(F)F)c2ccc(F)cc2)nn1, the IC50 (second compound 0.0316 µM) is reported as over 10 µM, the IC50 (second compound 0.1 µM) is reported as over 10 µM and the IC50 (second compound 0.316 µM) is reported as over 10 µM. It also gave an IC50 (second compound 1 µM) of over 10 µM, an IC50 (second compound 3.16 µM) of over 10 µM and an IC50 (second compound 10 µM) of over 10 µM. For the same compound, the viability, T/C [1] was 109%, the viability, T/C [2] was 100% and the viability, T/C [3] was 89.4%. It also gave a viability, T/C [4] of 88.7%, a viability, T/C [5] of 75.8% and a viability, T/C [6] of 68.9%. The viability, T/C [7] was 106%, the viability, T/C [8] was 92.7% and the viability, T/C [9] was 96.6%. It also gave a viability, T/C [10] of 97.6%, a viability, T/C [11] of 76.2% and a viability, T/C [12] of 62.3%. For the same compound, the viability, T/C [13] was 104%, the viability, T/C [14] was 113% and the viability, T/C [15] was 110%. It also gave a viability, T/C [16] of 94.4%, a viability, T/C [17] of 80.1% and a viability, T/C [18] of 68.9%. For the same compound, the viability, T/C [19] was 114%, the viability, T/C [20] was 96.1% and the viability, T/C [21] was 99.9%. The viability, T/C [22] was 86%, the viability, T/C [23] was 74.7% and the viability, T/C [24] was 66.1%. The viability, T/C [25] was 108%, the viability, T/C [26] was 93.4% and the viability, T/C [27] was 123%. The viability, T/C [28] was 113%, the viability, T/C [29] was 88.1% and the viability, T/C [30] was 76.6%. For the same compound, the viability, T/C [31] was 110%, the viability, T/C [32] was 105% and the viability, T/C [33] was 106%. It also gave a viability, T/C [34] of 95.5%, a viability, T/C [35] of 82.6% and a viability, T/C [36] of 77.2%.
With `CCc1c2c(nc3ccc(O)cc13)-c1cc3c(c(=O)n1C2)COC(=O)[C@]3(O)CC` + Cc1cccc(N(C)C(=O)C2C(O)CCN2c2nc(C)cc(C(F)(F)F)c2C#N)c1 the IC50 (second compound 0.0316 µM) was 0.0392 µM, the IC50 (second compound 0.1 µM) was 0.0371 µM and the IC50 (second compound 0.316 µM) was 0.0488 µM. The IC50 (second compound 1 µM) was 0.0465 µM, the IC50 (second compound 3.16 µM) was 0.0627 µM and the IC50 (second compound 10 µM) was 0.0498 µM. The viability, T/C (second compound 0.0316 µM, first compound 0.00316 µM) was 64.4%, the viability, T/C (second compound 0.0316 µM, first compound 0.01 µM) was 54.2% and the viability, T/C [1] was 48.2%. The viability, T/C [2] was 46.4%, the viability, T/C [3] was 30.4% and the viability, T/C [4] was 10.9%. The viability, T/C (second compound 0.1 µM, first compound 0.00316 µM) was 78.5%, the viability, T/C (second compound 0.1 µM, first compound 0.01 µM) was 57.1% and the viability, T/C [7] was 49.8%. It also gave a viability, T/C [8] of 44.9%, a viability, T/C [9] of 26.1% and a viability, T/C [10] of 8.04%. For the same compound, the viability, T/C (second compound 0.316 µM, first compound 0.00316 µM) was 79.2%, the viability, T/C (second compound 0.316 µM, first compound 0.01 µM) was 55.2% and the viability, T/C [13] was 50.5%. The viability, T/C [14] was 51.6%, the viability, T/C [15] was 29.1% and the viability, T/C [16] was 8.39%. It also gave a viability, T/C (second compound 1 µM, first compound 0.00316 µM) of 77.9%, a viability, T/C (second compound 1 µM, first compound 0.01 µM) of 61.1% and a viability, T/C [19] of 52.3%. The viability, T/C [20] was 47.4%, the viability, T/C [21] was 26.1% and the viability, T/C [22] was 10.2%. The viability, T/C (second compound 3.16 µM, first compound 0.00316 µM) was 87%, the viability, T/C (second compound 3.16 µM, first compound 0.01 µM) was 68.8% and the viability, T/C [25] was 56.3%. The viability, T/C [26] was 48.6%, the viability, T/C [27] was 29.7% and the viability, T/C [28] was 12.6%. The viability, T/C (second compound 10 µM, first compound 0.00316 µM) was 78.5%, the viability, T/C (second compound 10 µM, first compound 0.01 µM) was 58% and the viability, T/C [31] was 51.4%. It also gave a viability, T/C [32] of 47.9%, a viability, T/C [33] of 33.2% and a viability, T/C [34] of 9.43%.
`O=C(Nc1ccc(O)c(NS(=O)(=O)c2ccc(F)cc2)c1)c1ccc(-c2ccccc2)cc1` + COC1C(OC(N)=O)C(O)C(Oc2ccc3c(O)c(NC(=O)c4ccc(O)c(CC=C(C)C)c4)c(=O)oc3c2C)OC1(C)C was tested, and the IC50 (second compound 0.0316 µM) was over 10 µM, the IC50 (second compound 0.1 µM) was over 10 µM and the IC50 (second compound 0.316 µM) was over 10 µM. For the same compound, the IC50 (second compound 1 µM) was over 10 µM, the IC50 (second compound 3.16 µM) was over 10 µM and the IC50 (second compound 10 µM) was over 10 µM. It also gave a viability, T/C [1] of 105%, a viability, T/C [2] of 123% and a viability, T/C [3] of 117%. It also gave a viability, T/C [4] of 104%, a viability, T/C [5] of 122% and a viability, T/C [6] of 80.8%. It also gave a viability, T/C [7] of 103%, a viability, T/C [8] of 104% and a viability, T/C [9] of 117%. It also gave a viability, T/C [10] of 101%, a viability, T/C [11] of 101% and a viability, T/C [12] of 94.6%. For the same compound, the viability, T/C [13] was 103%, the viability, T/C [14] was 101% and the viability, T/C [15] was 95.7%. For the same compound, the viability, T/C [16] was 101%, the viability, T/C [17] was 117% and the viability, T/C [18] was 77.3%. The viability, T/C [19] was 115%, the viability, T/C [20] was 99.6% and the viability, T/C [21] was 97.2%. The viability, T/C [22] was 94.5%, the viability, T/C [23] was 103% and the viability, T/C [24] was 82.3%. For the same compound, the viability, T/C [25] was 108%, the viability, T/C [26] was 111% and the viability, T/C [27] was 113%. It also gave a viability, T/C [28] of 119%, a viability, T/C [29] of 105% and a viability, T/C [30] of 89.5%. It also gave a viability, T/C [31] of 95.3%, a viability, T/C [32] of 107% and a viability, T/C [33] of 102%. For the same compound, the viability, T/C [34] was 95.5%, the viability, T/C [35] was 103% and the viability, T/C [36] was 86.3%.
